Entries after “also recorded” stand apart in the source; their conditions may differ.
System: canine subjects
Experiment: Eye movement recording of nystagmus in canine subjects (amplitude, NAFX)
Type: in vivo
Protocol: Eye movements were recorded using an EyeLink 1000 remote video recording system, with a sampling rate of 500-1000 Hz.
Efficacy was assessed by video-based eye tracking system wherein eye movement recordings of nystagmus and determination of Nystagmus Acuity Function (NAF, NAFX or eNAFX) was calculated from position and velocity data obtained from calibrated eye movement recordings. Techniques used to collect such data include a scleral search coil, non-contact infrared oculography, video pupillography and electroculography.
Nystagmus Acuity Function—NAF is a derived function that predicts the best-corrected visual acuity possible in subjects with nystagmus. NAF is based upon objective measurements of a subject's waveform characteristics during fixation of a small light-emitting diode and combines the foveation time per cycle and the standard deviations of both eye position and velocity during target foveation into a function that is linearly proportional to best-possible visual acuity.
Evaluation of the nystagmus acuity function (NAF, NAFX, eNAFX) is often used to evaluate the quality of the nystagmus cycle and/or quantify the effect of surgical or pharmaceutical intervention on the nystagmus waveform. […]
Amplitude—The amplitude of nystagmus was measured directly from calibrated eye movement recordings in degrees. […]

## CC1(C)C(/C=C(\Cl)C(F)(F)F)C1C(=O)OC(C#N)c1cccc(Oc2ccccc2)c1 [LC, (R)-cyano(3-phenoxyphenyl)methyl(1S,3S)-rel-3-[(1Z)-2-chloro-3,3,3-trifluoro-1-propenyl]-2,2-dimethylcyclopropanecarboxylate]
After two doses of 0.6% topical eye drop, compared to Pre Drop recording of FIG. 1
  high frequency (9-11) Hz pendular oscillation in eye position recording: less amplitude as compared to the Pre Drop eye movement recording; also recorded: only present only in extreme gaze
After two doses of 0.6% w/w formulation
  effect on nystagmus: significant improvement of nystagmus

Source: patent US9095505B2, “Pyrethroids for treatment of ocular movement disorders” (RBG Group, LTD., priority 2013, dated 2015)
